Data taken from patent US5264347A, “Method for the determination of α-ketoisocaproate in biological samples using D-α-hydroxyisocaproic dehydrogenase from lactobacillus casei” (Kernforschungsanlage Juelich GmbH, priority 1988, dated 1993).

Tests used:
[1] = biological target: T1, D-α-hydroxyisocaproic dehydrogenase from Lactobacillus casei ssp. pseudoplantarum (DSM 20008) (Lacticaseibacillus paracasei, UniProt P17584); assay: Enzymatic selectivity for KIC: initial reaction rates versus keto acid concentration (FIG. 1); type: biochemical; conditions: change per minute in absorption at 340 nm versus keto-acid concentration, NADH present
T1 construct: D-α-hydroxyisocaproic dehydrogenase from Lactobacillus casei ssp. pseudoplantarum (DSM 20008); endogenous in cells; host or cells: Lactobacillus casei ssp. pseudoplantarum DSM 20008 (enzyme isolated from the strain's own cells)
T1 sequence (P17584 1-333): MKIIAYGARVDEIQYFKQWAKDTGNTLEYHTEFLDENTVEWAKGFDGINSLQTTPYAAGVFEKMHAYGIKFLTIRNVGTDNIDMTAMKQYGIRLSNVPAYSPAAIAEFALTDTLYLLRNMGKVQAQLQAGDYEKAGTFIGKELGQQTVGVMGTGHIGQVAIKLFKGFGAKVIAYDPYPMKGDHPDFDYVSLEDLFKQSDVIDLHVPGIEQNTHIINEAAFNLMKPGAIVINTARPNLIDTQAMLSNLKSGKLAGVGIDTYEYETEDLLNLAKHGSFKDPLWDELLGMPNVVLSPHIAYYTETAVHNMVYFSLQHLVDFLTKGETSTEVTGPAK
Text: This selectivity is illustrated in FIG. 1, which plots a measure of reaction rate (change per minute in absorption at 340 nm), in the presence of NADH and a Lactobacillus casei D-α-hydroxyisocaproicdehydrogenase, versus keto-acid concentration for KIC, KMV and KIV, respectively. In FIG. 1, .largecircle.--.largecircle. represents ketoisocaproate, O O represents ketomethylvalerate and .quadrature.----.quadrature. represents ketoisovalerate, respectively.
This entailed use of standard solutions of the three keto acids, each of known concentration (0.2 to 15 ωg/ml of assay mixture).
(§1) The assay mixture contained:
(§2) 0.1M potassium phosphate buffer, pH 7.0;
stepped concentrations of keto acids.
The initial reaction rates (ΔA340 /min) were measured at 340 nm. […] This difference would be sufficient for a selective determination of KIC, for example, in serum.

[2] = tested on: hydroxy-acid dehydrogenase (enzyme solution) of L. case ssp. alactosus DSM 20 020; assay: Selection of a suitable enzyme: initial reaction rate with keto acid, NADH absorption at 340 nm; type: biochemical; conditions: 0.15 mM keto acid, 0.2 mM NADH, pH 7.0
Experimental: (§3) The species Lactobacillus casei is currently divided into five subgroups (subspecies). […] The three keto acids KIC, KMV and KIV were used in a concentration of 0.15 mM (final concentration in the assay).
(§4) For the assay mixture, the microorganisms which had been cultured under customary conditions were harvested, the cells were disrupted by mechanical action, and the supernatant obtained by centrifugation was used as "enzyme solution" for the assay.
as §1, §2
(§5) 0.020 ml of enzyme solution (0.1-0.2 mg of protein);
(§6) The initial reaction rate was determined by measuring the absorption at 340 nm as a function of time. (The reaction rate is reported in international units (IU)/min.) The results obtained are summarized below.

[3] = tested on: hydroxy-acid dehydrogenase (enzyme solution) of L. casei ssp. rhamosus DSM 20 021; assay: as above; type: biochemical; conditions: 0.15 mM keto acid, 0.2 mM NADH, pH 7.0
Experimental: as §3, §4, §1, §2, §5, §6

[4] = tested on: hydroxy-acid dehydrogenase (enzyme solution) of L. casei ssp. tolerans DSM 20 258; assay: as above; type: biochemical; conditions: 0.15 mM keto acid, 0.2 mM NADH, pH 7.0
Experimental: as §3, §4, §1, §2, §5, §6

[5] = biological target: T2, hydroxy-acid dehydrogenase (enzyme solution) of L. confusus DSM 20 196 (Weissella confusa, UniProt P14295); assay: as above; type: biochemical; conditions: 0.15 mM keto acid, 0.2 mM NADH, pH 7.0
T2 sequence (P14295 1-310): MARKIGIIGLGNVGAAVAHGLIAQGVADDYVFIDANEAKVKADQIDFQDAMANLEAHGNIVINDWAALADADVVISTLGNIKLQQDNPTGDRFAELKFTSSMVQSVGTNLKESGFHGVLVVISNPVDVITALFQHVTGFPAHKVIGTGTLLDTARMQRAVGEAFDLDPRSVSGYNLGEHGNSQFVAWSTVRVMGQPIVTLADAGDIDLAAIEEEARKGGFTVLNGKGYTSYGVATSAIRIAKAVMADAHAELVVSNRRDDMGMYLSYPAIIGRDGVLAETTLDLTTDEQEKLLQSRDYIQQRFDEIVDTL
Experimental: (§7) The species Lactobacillus casei is currently divided into five subgroups (subspecies). […] The three keto acids KIC, KMV and KIV were used in a concentration of 0.15 mM (final concentration in the assay). […] For the assay mixture, the microorganisms which had been cultured under customary conditions were harvested, the cells were disrupted by mechanical action, and the supernatant obtained by centrifugation was used as "enzyme solution" for the assay. Besides the various Lactobacillus casei strains, other Lactobacillus strains were also investigated; two typical representatives are listed in a table below. The assay mixture contained: 0.1M potassium phosphate buffer, pH 7.0; 0.2 mM NADH; 0.020 ml of enzyme solution (0.1-0.2 mg of protein); 0.15 mM keto acid (as shown in the table). The initial reaction rate was determined by measuring the absorption at 340 nm as a function of time. (The reaction rate is reported in international units (IU)/min.) The results obtained are summarized below.

[6] = tested on: hydroxy-acid dehydrogenase (enzyme solution) of L. curvatus DSM 20 019; assay: as above; type: biochemical; conditions: 0.15 mM keto acid, 0.2 mM NADH, pH 7.0
Experimental: as §7

[7] = biological target: T3, hydroxy-acid dehydrogenase (enzyme solution) of L. casei ssp. pseudoplantarum DSM 20 008 (Lacticaseibacillus paracasei, UniProt P17584); assay: as above; type: biochemical, Lactobacillus casei ssp. pseudoplantarum; conditions: 0.15 mM keto acid, 0.2 mM NADH, pH 7.0
T3 construct: the cells were disrupted by mechanical action, and the supernatant obtained by centrifugation was used as; endogenous in cells; host or cells: Lactobacillus casei ssp. pseudoplantarum DSM 20008, cell-free supernatant
T3 sequence (P17584 1-333): T1 sequence (P17584 1-333)
Experimental: as §3, §4, §1, §2, §5, §6

[8] = biological target: T4, hydroxy-acid dehydrogenase (enzyme solution) of L. casei ssp. pseudoplantarum DSM 20 207 (Lacticaseibacillus paracasei, UniProt P17584); assay: as above; type: biochemical, Lactobacillus casei ssp. pseudoplantarum; conditions: 0.15 mM keto acid, 0.2 mM NADH, pH 7.0
T4 sequence (P17584 1-333): T1 sequence (P17584 1-333)
Experimental: as §3, §4, §1, §2, §5, §6

[9] = biological target: T5, hydroxy-acid dehydrogenase (enzyme solution) of L. casei ssp. casei DSM 20 011 (Lacticaseibacillus casei, UniProt A0AAN1C5W2); assay: as above; type: biochemical, Lactobacillus casei ssp. casei; conditions: 0.15 mM keto acid, 0.2 mM NADH, pH 7.0
T5 sequence (A0AAN1C5W2 1-333): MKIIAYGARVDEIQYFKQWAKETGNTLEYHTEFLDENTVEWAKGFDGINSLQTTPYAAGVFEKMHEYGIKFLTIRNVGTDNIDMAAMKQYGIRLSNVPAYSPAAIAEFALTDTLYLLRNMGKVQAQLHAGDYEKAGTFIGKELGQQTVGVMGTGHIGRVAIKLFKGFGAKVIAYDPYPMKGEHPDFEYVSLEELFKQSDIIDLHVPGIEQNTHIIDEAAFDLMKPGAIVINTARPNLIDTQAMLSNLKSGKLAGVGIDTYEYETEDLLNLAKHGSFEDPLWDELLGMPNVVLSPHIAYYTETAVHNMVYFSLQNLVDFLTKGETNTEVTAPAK
Experimental: as §3, §4, §1, §2, §5, §6

**Q.** For `CCC(C)C(=O)C(=O)O` (stereo not drawn) [KMV, ketomethylvalerate], which “enzymatic conversion relative to the conversion of KIC (FIG. 1)” value [1] is on record?
**A.** Its value is “can be ignored”.

**Q.** And the initial reaction rate [2]?
**A.** The initial reaction rate was 0 IU/min.

**Q.** What about the initial reaction rate [3] of the same compound?
**A.** The initial reaction rate was 0 IU/min.

**Q.** And the initial reaction rate [4]?
**A.** The initial reaction rate was 0 IU/min.

**Q.** And the initial reaction rate [5]?
**A.** Its initial reaction rate is 0.90 IU/min.

**Q.** And the initial reaction rate [6]?
**A.** Its initial reaction rate is 1.40 IU/min.

**Q.** And the initial reaction rate [7]?
**A.** The initial reaction rate was 0.12 IU/min.

**Q.** And the initial reaction rate [8]?
**A.** Its initial reaction rate is 0 IU/min.

**Q.** And the initial reaction rate [9]?
**A.** Its initial reaction rate is 0 IU/min.
